Source: patent publication US10654890B2, “Cyclic peptide derivative, method for preparing same and composition thereof” (priority 2014, dated 2020)

Assays:
[1] = tested on: normal human dermal fibroblasts (NHDF); assay: Cell proliferation test, normal human dermal fibroblasts; format: cell-based
Protocol: To see whether or not the astrocyte proliferation accelerating activity of the cyclic peptide derivative is a specific proliferative activity that is limited only to an astrocyte or it is based on a common cell proliferative activity, investigations were made by using normal human dermal fibroblasts (NHDF), human liver cancer cells (HepG2), and human leukemia cells (K562).
Seeding of each cell on a 96 well plate was carried out by adding 100 μl of a cell suspension in which normal human dermal fibroblasts are prepared at 2.5×10^4 cells/ml or human liver cancer cells and human leukemia cells are prepared at 5×10^4 cells/ml. Since the cyclic peptide derivative is added after dissolving it in PBS (−), only PBS (−) was added as a control.

NGF gene = NGF gene expression in culture astrocyte (real time PCR); format: cell-based, mouse; conditions: 25 μM; from 8 hours to 24 hours after the addition; p<0.05 vs before the addition; calibrated to GAPDH
Protocol: By adding the cyclic peptide derivative of 25 μM to an astrocyte of the secondary subculture, the influence on expression of the gene of NGF, GDNF, VFGF-A, BDNF, and VGF as a representative neurotrophic factor was determined over time.
Except that a cell suspension of an astrocyte of the secondary subculture was prepared to have cell concentration of 3×10^5 cells/ml and the time for exposing the astrocyte to the above 25 μM cyclic peptide derivative was set at 0, 1, 2, 4, 8, 12, and 24 hours, the astrocyte was cultured in the same order as above <6>. As a control group, LG-D-MEM (0% FBS) not added with any cyclic peptide derivative was used.
Each astrocyte which has been exposed to the cyclic peptide derivative during each time described above was collected, and then, by using RNeasy Mini Kit (QIAGEN), extraction and purification of total RNA were carried out. The extracted total RNA was quantified by using Nano Photometer (IMPLEN). For the reverse transcription reaction, cDNA was synthesized by reacting 500 ng of total RNA with PrimeScript RT Master Mix (TaKaRa) at 37° C. for 15 minutes using GeneAmp PCR System 9600 (PERKIN ELMER), and the reaction was terminated by heating for 5 seconds at 85° C. […]

[2] = tested on: senescence-accelerated model mouse SAMP8; assay: Morris water maze test; format: in vivo; conditions: SAMP8, oral 25 μg/kg/day; vs SAMP8; p<0.05
Excerpt: As a mouse for an in vivo test of the cyclic peptide derivative, senescence-accelerated model mouse SAMP8 which is used as a cognitive disorder model animal of initial Alzheimer's disease accompanied with aging was selected, and as a control, SAMR1 mouse with normal aging was selected.
19-Week old male mice of SAMR1 and SAMP8 were purchased from Japan SLC, Inc., and divided into 5 groups, i.e., mouse group with normal aging (SAMR1), senescence-accelerated model mouse group (SAMP8), {P8+donepezil hydrochloride 1250 μg/kg/day} group as a positive control, and {P8+cyclic peptide derivative 2.5 μg/kg/day} group and {P8+cyclic peptide derivative 25 μg/kg/day} group as a test group. […] After 10 days of an acclimation period, all mice were provided with standard meal (MEQ, Oriental Yeast Company) and body weight of the animal was recorded everyday during the entire test period. […]
(3) {P8+donepezil hydrochloride 1250 μg/kg/day} group: As a positive control, donepezil hydrochloride (Sanyo Chemical Laboratories CO., LTD.) was dissolved in MQ and prepared to have a concentration of 1250 μg/kg (bodyweight), and then orally administered to a SAMP8 for 5 weeks by using a gastric sonde. The concentration was accurately calculated based on the bodyweight which has been measured every day. […]

SMILES: CCC1(C)Oc2cc(ccc2O)C(O)C(NC)C(=O)NC(C(C)C)C(=O)NC1C(=O)NC(CCC(=O)O)C(=O)O (centres unmarked) [cyclic peptide derivative]
- cytotoxicity for normal cells [1]: low
- cell proliferation rate ([1]; 25 μM): ~80%
- proliferation of NHDF cells compared to the group with no addition ([1]; 25 μM): inhibited in a significant sense
- expression of the gene of NGF (NGF gene): increased
- spatial learning ability (time in zone (%) in quadrant 1) [2]: significantly recovered
